Assay results taken from BindingDB's records for doi:10.1021/jm00016a009 (Purdue University, 1995).

Experiment: Effective concentration as Adenylate cyclase activity was measured in rat homogenate

| Structure (SMILES) | EC50 [nM] |
| --- | --- |
| CCc1ccc2c(c1)[C@@H]1c3cc(O)c(O)cc3CC[C@H]1NC2 [(6aR,12bS)-2-Ethyl-5,6,6a,7,8,12b-hexahydro-benzo[a]phenanthridine-10,11-diol] | 610 |
| Oc1cc2c(cc1O)[C@H]1c3cc(-c4ccccc4)ccc3CN[C@@H]1CC2 [(6aR,12bS)-2-Phenyl-5,6,6a,7,8,12b-hexahydro-benzo[a]phenanthridine-10,11-diol] | 10 |
| Oc1ccc2c(c1)[C@@H]1c3cc(O)c(O)cc3CC[C@H]1NC2 [(6aR,12bS)-5,6,6a,7,8,12b-Hexahydro-benzo[a]phenanthridine-2,10,11-triol] | 148 |
| Cc1ccc2c(c1)CN[C@@H]1CCc3cc(O)c(O)cc3[C@@H]21 [(6aR,12bS)-3-Methyl-5,6,6a,7,8,12b-hexahydro-benzo[a]phenanthridine-10,11-diol] | 134 |
| Cc1cccc2c1CN[C@@H]1CCc3cc(O)c(O)cc3[C@@H]21 [(6aR,12bS)-4-Methyl-5,6,6a,7,8,12b-hexahydro-benzo[a]phenanthridine-10,11-diol] | 151 |
| CCCN1Cc2cc(C)ccc2[C@@H]2c3cc(O)c(O)cc3CC[C@H]21 [(6aR,12bS)-3-Methyl-6-propyl-5,6,6a,7,8,12b-hexahydro-benzo[a]phenanthridine-10,11-diol] | 10 |
| Oc1ccc2c(c1)CN[C@@H]1CCc3cc(O)c(O)cc3[C@@H]21 [(6aR,12bS)-5,6,6a,7,8,12b-Hexahydro-benzo[a]phenanthridine-3,10,11-triol] | 130 |
